US9278942B2, “Non-steroidal compounds as androgen receptor modulators” (FLX Discoveries Oy, priority 2011, dated 2016)

Key:
human AR [1] = target: T1, human AR (Homo sapiens, UniProt P10275); assay: Competitive AR binding assay against [3H]-R1881 in transiently transfected COS-1 cells; details: compound 13.4 μM, [3H]-R1881 1.34 nM, complete inhibition equals 100%; for inhibition at 13.4 µM: Table 1, read-out: Inhibition of [3H]-R1881 binding at 1.34 nM ± S.D.
T1 construct: expressed in transfected cells; host or cells: COS-1
T1 sequence (P10275 1-920): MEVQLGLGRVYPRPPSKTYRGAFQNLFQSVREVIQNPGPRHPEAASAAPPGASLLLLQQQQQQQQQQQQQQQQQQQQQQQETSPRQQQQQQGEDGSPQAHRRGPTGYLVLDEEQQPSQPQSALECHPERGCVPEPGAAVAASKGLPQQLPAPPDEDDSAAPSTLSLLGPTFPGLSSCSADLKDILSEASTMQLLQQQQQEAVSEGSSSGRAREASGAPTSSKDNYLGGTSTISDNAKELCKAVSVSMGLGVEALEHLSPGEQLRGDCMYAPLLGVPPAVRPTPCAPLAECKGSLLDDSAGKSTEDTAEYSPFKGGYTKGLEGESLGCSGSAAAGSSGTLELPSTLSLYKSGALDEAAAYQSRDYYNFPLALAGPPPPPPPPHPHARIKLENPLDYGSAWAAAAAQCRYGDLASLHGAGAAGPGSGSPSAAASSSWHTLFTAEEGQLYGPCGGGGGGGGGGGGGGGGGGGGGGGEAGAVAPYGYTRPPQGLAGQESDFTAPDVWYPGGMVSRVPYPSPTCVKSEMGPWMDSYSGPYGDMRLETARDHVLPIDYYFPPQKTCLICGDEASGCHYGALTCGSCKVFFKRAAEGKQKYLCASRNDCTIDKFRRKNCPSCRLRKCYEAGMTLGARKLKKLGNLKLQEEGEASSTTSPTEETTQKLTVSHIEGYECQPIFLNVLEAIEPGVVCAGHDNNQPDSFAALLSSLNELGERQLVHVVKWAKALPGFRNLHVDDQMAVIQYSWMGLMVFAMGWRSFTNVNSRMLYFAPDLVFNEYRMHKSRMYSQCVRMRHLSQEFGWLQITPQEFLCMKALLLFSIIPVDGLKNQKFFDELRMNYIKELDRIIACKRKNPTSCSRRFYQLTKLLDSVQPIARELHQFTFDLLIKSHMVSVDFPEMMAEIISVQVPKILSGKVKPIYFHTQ
Summary of the method: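 COS-1 cells transfected 24 h with human AR vector, then after 36 h exposed 2 h at 37° C to compound at 10000-fold molar excess over 1.34 nM [3H]-R1881. Cell-bound radioactivity counted in triplicate; result given as % inhibition of labelled R1881 binding.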

human AR [2] = target: T1, human AR; assay: AR antagonism assay: inhibition of transcriptional activation of AR (Probasin-luc reporter, COS-1 cells); assay type: cell-based; details: compound 10.0 μM; relative luciferase response: 100% for testosterone (no antiandrogenic effect), 0% for complete antagonism
Summary of the method: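 COS-1 cells transfected 24 h with human AR vector, Probasin-luc reporter and β-gal control, then exposed 18 h at 37 °C to 10 μM compound plus 100 nM testosterone. Luciferase read-out normalised to β-galactosidase activity and protein content.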

Row | melting point | Compound | other results
1 | 97.8 to 98.6 °C | COc1ccc(C2=NOC(C)(Cc3ccccc3)C2)cc1 (stereo not drawn) [Example 3ab, 5-Benzyl-3-(4-methoxyphenyl)-5-methyl-4,5-dihydro-isoxazole] | inhibition at 13.4 µM (human AR [1]): 49.6 ± 2%
2 | 144.8 to 146.3 °C | CC1(Cc2ccccc2)CC(c2ccc3ccccc3c2)=NO1 (stereo not drawn) [Example 9ab, 5-Benzyl-3-naphthalen-2-yl-5-methyl-4,5-dihydro-isoxazole] | inhibition at 13.4 µM (human AR [1]): 63.7 ± 1.5%
3 | 109.3 to 110.2 °C | COc1ccccc1C1=NOC(Cc2ccccc2)(c2ccccc2)C1 (stereo not drawn) [Example 12, 5-Benzyl-3-(2-methoxyphenyl)-5-phenyl-4,5-dihydro-isoxazole] | –
4 | 94.4 to 95.2 °C | COc1cccc(C2=NOC(Cc3ccccc3)(c3ccccc3)C2)c1 (stereo not drawn) [Example 13, 5-Benzyl-5-phenyl-3-(3-methoxyphenyl)-4,5-dihydro-isoxazole] | –
5 | 139.3 to 141 °C | COc1ccc(C2=NOC(Cc3ccccc3)(c3ccccc3)C2)cc1 (stereo not drawn) [Example 14, 5-Benzyl-3-(4-methoxyphenyl)-5-phenyl-4,5-dihydro-isoxazole] | –
6 | 134.3 to 135.2 °C | Fc1ccccc1C1=NOC(Cc2ccccc2)(c2ccccc2)C1 (stereo not drawn) [Example 15ab, 5-Benzyl-3-(2-fluorophenyl)-5-phenyl-4,5-dihydro-isoxazole] | inhibition at 13.4 µM (human AR [1]): 49.5 ± 4.3%
7 | 120.3 to 122.1 °C | Clc1ccc(C2=NOC(Cc3ccccc3)(c3ccccc3)C2)cc1 (stereo not drawn) [Example 16, 5-Benzyl-3-(4-chlorophenyl)-5-phenyl-4,5-dihydro-isoxazole] | –
8 | 158 to 159.2 °C | O=[N+]([O-])c1ccc(C2=NOC(Cc3ccccc3)(c3ccccc3)C2)cc1 (stereo not drawn) [Example 17, 5-Benzyl-3-(4-nitrophenyl)-5-phenyl-4,5-dihydro-isoxazole] | –
9 | 104.5 to 107 °C | N#Cc1ccc(C2=NOC(Cc3ccccc3)(c3ccccc3)C2)cc1 (stereo not drawn) [Example 18, 4-(5-Benzyl-5-phenyl-4,5-dihydro-isoxazol-3-yl)-benzonitrile] | –
10 | 151.3 to 153.9 °C | Oc1ccc(C2=NOC(Cc3ccccc3)(c3ccccc3)C2)cc1 (stereo not drawn) [Example 80, 5-Benzyl-3-(4-hydroxyphenyl)-5-phenyl-4,5-dihydro-isoxazole] | –
11 | – | N#Cc1cccc(C2=NOC3CCCCCC23)c1C(F)(F)F (stereo not drawn) [Example 95b, 3-(4,5,6,7,8,8a-Hexahydro-3aH-cyclohepta[d]isoxazol-3-yl)-2-trifluoromethyl-benzonitrile] | AR antagonism against 100 nM testosterone ± S.D. (human AR [2]): 19.2 ± 2.9%; Inhibition of [3H]-R1881 binding at 1.34 nM ± S.D. (human AR [1]; Table 3): 98.1 ± 0.3%
